Source: US20160375006A1, “USES OF PARALOG-SELECTIVE INHIBITORS OF GSK3 KINASES” (priority 2012, published 2016)

Columns and labels:
PKCα = PKCα (Homo sapiens, UniProt P17252)
Protocol: (§1) This was completed utilizing one of two assays depending on the kinase being examined.
(§2) A solution of IMAP binding reagent (IMAP Screening Express kit; Molecular Devices) (60 μL) was added to each well and incubated for 30 minutes.
(§3) A solution of termination buffer (QuickScout Screening assist MSA; Carna Biosciences) (60 μL) was added to each well. The entire reaction mixture was then applied to a LabChip3000 system (Caliper Life Science) and the product and substrate peptide peaks were separated and quantified.
(§4) The assay utilized was identical to that of the single point inhibitory activity determination (MSA) but run in dose response. […] A solution of termination buffer (QuickScout Screening assist MSA; Carna Biosciences) (60 μL) was added to each well. The entire reaction mixture was then applied to a LabChip3000 system (Caliper Life Science) and the product and substrate peptide peaks were separated and quantified.

CaMK2β = CaMK2β (Homo sapiens, UniProt Q13554)
Protocol: as §1, §2, §3, §4

NEK1 = NEK1 (Homo sapiens, UniProt Q96PY6)
Protocol: as §1, §2, §3

SYK = SYK (Homo sapiens, UniProt P43405)
Protocol: as §1, §2, §3, §4

EPHA5 = EPHA5 (Homo sapiens, UniProt P54756)
Protocol: as §1, §2, §3, §4

JAK2 = JAK2 (Homo sapiens, UniProt O60674)
Protocol: as §1, §2, §3, §4

WNK2 = WNK2 (Homo sapiens, UniProt Q9Y3S1)
Protocol: as §1, §2, §3, §4

TAOK2 = TAOK2 (Homo sapiens, UniProt Q9UL54)
Protocol: as §1, §2, §3

RET(G691S) = RET(G691S) (Homo sapiens, UniProt P07949, G691S)
Protocol: as §1, §2, §3

PKCγ = PKCγ (Homo sapiens, UniProt P05129)
Protocol: as §1, §2, §3, §4

COT_Cascade = COT_Cascade (Homo sapiens, UniProt P41279)
Protocol: as §1, §2, §3, §4

HIPK3 = HIPK3 (Homo sapiens, UniProt Q9H422)
Protocol: as §1, §2, §3, §4

AurC = AurC (Homo sapiens, UniProt Q9UQB9)
Protocol: as §1, §2, §3

PDGFRβ = PDGFRβ (Homo sapiens, UniProt P09619)
Protocol: as §1, §2, §3, §4

ABL(T315I) = ABL(T315I) (Homo sapiens, UniProt P00519, T315I)
Protocol: as §1, §2, §3, §4

FGFR1 = FGFR1 (Homo sapiens, UniProt P11362)
Protocol: as §1, §2, §3, §4

MAPKAPK5 = MAPKAPK5 (Homo sapiens, UniProt Q8IW41)
Protocol: as §1, §2, §3, §4

CaMK4 = CaMK4 (Homo sapiens, UniProt Q16566)
Protocol: as §1, §2, §3, §4

CSK = CSK (Homo sapiens, UniProt P41240)
Protocol: as §1, §2, §3, §4

DYRK1B = DYRK1B (Homo sapiens, UniProt Q9Y463)
Protocol: as §1, §2, §3, §4

KIT = KIT (Homo sapiens, UniProt P10721)
Protocol: as §1, §2, §3

MST2 = MST2 (Homo sapiens, UniProt Q13188)
Protocol: as §1, §2, §3

p38α = p38α (Homo sapiens, UniProt Q16539)
Protocol: as §1, §2, §3, §4

DAPK1 = DAPK1 (Homo sapiens, UniProt P53355)
Protocol: as §1, §2, §3, §4

EPHA1 = EPHA1 (Homo sapiens, UniProt P21709)
Protocol: as §2, §3, §4

MOS_Cascade = MOS_Cascade (Homo sapiens, UniProt P00540)
Protocol: as §1, §2, §3, §4

HIPK4 = biological target: T1, HIPK4 (Homo sapiens, UniProt Q8NE63); assay: Carna kinase panel; type: biochemical
T1 construct: purchased Carna Biosciences
Protocol: as §1, §2, §3

MLK1_Cascade = MLK1_Cascade (Homo sapiens, UniProt P80192)
Protocol: as §1, §3
The assay utilized was identical to that of the single point inhibitory activity determination (MSA) but run in dose response.

MAP2K3_Cascade = MAP2K3_Cascade (Homo sapiens, UniProt P46734)
Protocol: as §1, §2, §3, §4

AKT1 = AKT1 (Homo sapiens, UniProt P31749)
Protocol: as §1, §2, §3, §4

BMX = BMX (Homo sapiens, UniProt P51813)
Protocol: as §1, §2, §3, §4

SRM = SRM (Homo sapiens, UniProt Q9H3Y6)
Protocol: as §1, §2, §3, §4

TRKB = TRKB (Homo sapiens, UniProt Q16620)
Protocol: as §1, §2, §3, §4

MSSK1 = MSSK1 (Homo sapiens, UniProt Q9UPE1)
Protocol: as §1, §2, §3, §4

PAK5 = PAK5 (Homo sapiens, UniProt Q9P286)
Protocol: as §1, §2, §3

SGK = SGK (Homo sapiens, UniProt O00141)
Protocol: as §1, §2, §3, §4

PDK1 = PDK1 (Homo sapiens, UniProt O15530)
Protocol: as §1, §2, §3, §4

TYK2 = TYK2 (Homo sapiens, UniProt P29597)
Protocol: as §2, §3, §4

JNK1 = JNK1 (Homo sapiens, UniProt P45983)
Protocol: as §1, §2, §3, §4

CaMK2γ = CaMK2γ (Homo sapiens, UniProt Q13555)
Protocol: as §1, §2, §3, §4

MAP2K2_Cascade = MAP2K2_Cascade (Homo sapiens, UniProt P36507)
Protocol: as §1, §2, §3

Chain of PAK5 (Q9P286 whole entry): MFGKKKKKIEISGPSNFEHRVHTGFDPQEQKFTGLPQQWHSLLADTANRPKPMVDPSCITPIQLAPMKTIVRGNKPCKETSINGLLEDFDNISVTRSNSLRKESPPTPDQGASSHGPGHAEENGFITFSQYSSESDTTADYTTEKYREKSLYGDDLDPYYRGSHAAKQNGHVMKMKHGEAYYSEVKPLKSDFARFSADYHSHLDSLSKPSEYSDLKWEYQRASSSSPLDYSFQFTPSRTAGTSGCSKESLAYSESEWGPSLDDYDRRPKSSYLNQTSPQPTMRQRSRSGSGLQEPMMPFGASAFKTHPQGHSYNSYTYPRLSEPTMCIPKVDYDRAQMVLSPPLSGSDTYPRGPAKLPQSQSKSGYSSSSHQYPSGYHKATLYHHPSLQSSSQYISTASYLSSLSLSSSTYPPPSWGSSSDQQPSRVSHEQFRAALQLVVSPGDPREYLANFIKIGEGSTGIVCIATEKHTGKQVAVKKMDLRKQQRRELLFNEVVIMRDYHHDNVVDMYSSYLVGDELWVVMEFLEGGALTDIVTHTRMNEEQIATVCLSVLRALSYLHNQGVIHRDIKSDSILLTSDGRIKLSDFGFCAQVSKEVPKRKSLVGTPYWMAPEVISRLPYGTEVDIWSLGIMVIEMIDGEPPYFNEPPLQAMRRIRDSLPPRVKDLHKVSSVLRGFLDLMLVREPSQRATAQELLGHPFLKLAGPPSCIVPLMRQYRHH
Chain of BMX (P51813 whole entry): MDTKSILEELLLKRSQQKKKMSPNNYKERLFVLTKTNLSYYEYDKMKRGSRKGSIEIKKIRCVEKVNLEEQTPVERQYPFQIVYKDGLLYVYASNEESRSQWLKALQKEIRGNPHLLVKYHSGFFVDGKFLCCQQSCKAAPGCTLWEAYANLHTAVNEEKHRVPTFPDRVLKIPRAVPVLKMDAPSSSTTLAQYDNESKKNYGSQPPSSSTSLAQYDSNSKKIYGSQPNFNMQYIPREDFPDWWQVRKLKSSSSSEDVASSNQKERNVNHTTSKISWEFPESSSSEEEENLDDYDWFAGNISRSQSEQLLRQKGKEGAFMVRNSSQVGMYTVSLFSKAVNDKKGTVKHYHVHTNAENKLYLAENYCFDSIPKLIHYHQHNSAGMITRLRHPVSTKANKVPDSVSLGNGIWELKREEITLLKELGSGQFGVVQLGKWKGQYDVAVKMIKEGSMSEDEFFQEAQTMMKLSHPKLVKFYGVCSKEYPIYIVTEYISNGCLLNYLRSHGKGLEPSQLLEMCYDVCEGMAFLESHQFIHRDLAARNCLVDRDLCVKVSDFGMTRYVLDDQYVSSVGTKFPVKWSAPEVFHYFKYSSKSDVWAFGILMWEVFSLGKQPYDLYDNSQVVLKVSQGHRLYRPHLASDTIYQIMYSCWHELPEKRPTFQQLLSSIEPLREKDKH
Chain of MLK1_Cascade (P80192 whole entry): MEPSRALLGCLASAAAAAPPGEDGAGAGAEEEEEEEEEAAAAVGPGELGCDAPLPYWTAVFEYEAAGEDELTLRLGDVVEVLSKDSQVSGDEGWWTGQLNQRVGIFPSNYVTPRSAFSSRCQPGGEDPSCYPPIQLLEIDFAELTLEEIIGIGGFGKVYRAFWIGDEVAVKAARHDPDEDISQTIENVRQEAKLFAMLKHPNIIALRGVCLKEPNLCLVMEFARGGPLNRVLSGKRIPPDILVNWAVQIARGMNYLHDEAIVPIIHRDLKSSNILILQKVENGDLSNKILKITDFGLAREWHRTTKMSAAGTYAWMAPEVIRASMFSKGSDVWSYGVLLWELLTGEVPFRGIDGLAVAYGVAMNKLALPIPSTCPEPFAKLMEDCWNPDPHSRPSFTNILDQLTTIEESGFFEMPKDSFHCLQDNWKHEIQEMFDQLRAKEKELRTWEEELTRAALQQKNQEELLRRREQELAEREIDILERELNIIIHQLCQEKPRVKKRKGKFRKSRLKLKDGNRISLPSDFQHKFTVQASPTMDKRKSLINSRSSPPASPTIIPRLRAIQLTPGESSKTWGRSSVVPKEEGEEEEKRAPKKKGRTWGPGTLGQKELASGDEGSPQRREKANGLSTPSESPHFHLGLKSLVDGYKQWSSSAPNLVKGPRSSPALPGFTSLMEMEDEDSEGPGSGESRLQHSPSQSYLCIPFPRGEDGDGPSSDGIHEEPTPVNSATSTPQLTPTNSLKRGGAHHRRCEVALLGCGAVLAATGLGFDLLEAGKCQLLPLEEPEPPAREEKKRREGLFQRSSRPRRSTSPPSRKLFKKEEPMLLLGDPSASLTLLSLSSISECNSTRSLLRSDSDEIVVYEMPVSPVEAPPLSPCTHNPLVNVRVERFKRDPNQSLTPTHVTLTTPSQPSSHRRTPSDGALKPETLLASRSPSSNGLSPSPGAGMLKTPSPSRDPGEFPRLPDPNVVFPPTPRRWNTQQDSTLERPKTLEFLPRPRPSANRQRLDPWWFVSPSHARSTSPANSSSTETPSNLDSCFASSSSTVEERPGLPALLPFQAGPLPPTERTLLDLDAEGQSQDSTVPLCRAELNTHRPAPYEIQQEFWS
Chain of MST2 (Q13188 whole entry): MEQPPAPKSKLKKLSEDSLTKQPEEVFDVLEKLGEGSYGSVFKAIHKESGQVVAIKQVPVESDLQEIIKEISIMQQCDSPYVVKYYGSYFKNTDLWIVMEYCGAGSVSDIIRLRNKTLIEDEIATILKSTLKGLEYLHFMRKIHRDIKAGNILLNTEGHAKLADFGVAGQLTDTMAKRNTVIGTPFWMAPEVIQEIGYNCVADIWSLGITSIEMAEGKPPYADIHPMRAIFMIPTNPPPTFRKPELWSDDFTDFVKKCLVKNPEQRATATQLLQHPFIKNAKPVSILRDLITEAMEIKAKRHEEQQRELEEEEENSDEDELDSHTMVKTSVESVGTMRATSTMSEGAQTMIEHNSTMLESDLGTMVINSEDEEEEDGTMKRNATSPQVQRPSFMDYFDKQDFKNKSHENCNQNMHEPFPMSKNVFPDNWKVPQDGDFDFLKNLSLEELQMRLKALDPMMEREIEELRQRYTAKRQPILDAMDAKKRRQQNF
Chain of DAPK1 (P53355 whole entry): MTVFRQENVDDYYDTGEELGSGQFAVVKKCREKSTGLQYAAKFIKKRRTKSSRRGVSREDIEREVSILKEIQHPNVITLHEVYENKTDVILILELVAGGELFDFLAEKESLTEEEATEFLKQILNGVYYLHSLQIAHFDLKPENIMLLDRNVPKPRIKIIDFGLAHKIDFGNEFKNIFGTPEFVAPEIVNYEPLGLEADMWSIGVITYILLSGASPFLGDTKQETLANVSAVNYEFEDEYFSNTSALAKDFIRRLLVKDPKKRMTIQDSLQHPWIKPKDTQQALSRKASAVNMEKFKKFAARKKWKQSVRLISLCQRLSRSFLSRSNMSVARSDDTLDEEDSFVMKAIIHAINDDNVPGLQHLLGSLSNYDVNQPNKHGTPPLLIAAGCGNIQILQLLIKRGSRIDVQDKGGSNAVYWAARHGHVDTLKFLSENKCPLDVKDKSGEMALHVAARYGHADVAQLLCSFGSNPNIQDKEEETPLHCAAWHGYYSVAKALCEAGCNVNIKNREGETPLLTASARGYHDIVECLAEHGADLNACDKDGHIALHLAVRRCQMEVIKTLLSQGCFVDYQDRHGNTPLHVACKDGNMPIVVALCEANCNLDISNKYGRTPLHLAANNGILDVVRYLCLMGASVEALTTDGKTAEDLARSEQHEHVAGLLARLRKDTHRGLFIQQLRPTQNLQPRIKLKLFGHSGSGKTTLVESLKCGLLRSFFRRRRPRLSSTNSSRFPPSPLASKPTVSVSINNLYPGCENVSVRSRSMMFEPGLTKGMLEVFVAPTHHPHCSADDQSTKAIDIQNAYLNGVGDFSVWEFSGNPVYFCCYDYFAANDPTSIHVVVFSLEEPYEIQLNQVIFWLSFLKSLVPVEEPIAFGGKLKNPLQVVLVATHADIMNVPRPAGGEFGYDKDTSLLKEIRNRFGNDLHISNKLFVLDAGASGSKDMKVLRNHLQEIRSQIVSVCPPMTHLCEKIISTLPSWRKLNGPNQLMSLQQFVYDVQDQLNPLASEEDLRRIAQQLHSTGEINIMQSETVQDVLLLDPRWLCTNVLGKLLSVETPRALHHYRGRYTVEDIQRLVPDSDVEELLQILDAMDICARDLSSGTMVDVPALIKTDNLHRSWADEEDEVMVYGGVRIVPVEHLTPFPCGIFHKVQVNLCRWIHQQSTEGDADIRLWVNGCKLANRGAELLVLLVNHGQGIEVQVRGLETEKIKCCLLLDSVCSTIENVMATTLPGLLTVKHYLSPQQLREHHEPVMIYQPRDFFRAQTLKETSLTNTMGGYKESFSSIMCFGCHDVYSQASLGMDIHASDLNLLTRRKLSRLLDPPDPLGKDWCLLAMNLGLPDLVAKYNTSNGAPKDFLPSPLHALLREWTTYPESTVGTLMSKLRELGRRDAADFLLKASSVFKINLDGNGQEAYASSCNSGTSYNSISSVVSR
Chain of PDK1 (O15530 whole entry): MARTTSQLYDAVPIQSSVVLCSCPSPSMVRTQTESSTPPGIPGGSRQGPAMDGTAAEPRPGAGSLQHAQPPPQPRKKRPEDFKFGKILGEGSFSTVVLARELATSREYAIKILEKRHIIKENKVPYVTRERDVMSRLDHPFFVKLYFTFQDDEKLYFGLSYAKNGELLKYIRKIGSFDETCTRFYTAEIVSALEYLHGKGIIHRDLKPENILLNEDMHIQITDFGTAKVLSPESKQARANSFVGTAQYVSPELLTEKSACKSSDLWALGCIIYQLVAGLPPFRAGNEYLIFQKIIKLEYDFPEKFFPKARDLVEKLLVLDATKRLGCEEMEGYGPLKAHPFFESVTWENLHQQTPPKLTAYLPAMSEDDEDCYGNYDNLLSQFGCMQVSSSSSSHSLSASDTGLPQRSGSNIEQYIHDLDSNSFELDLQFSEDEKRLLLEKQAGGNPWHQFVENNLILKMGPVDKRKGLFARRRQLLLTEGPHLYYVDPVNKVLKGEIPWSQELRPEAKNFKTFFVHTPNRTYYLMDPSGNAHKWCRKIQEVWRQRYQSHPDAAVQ

CC[C@@]1(c2ccccc2)C2=C(CC(C)(C)CC2=O)Nc2n[nH]cc21 [BRD0705]
% Inhibition at 10 μM (PKCα): −0.5%
% Inhibition at 10 μM (CaMK2β): −9.0%
% Inhibition at 10 μM (NEK1): −9.6%
% Inhibition at 10 μM (SYK): 0.6%
% Inhibition at 10 μM (EPHA5): 12.7%
% Inhibition at 10 μM (JAK2): −0.5%
% Inhibition at 10 μM (WNK2): −5.0%
% Inhibition at 10 μM (TAOK2): −5.8%
% Inhibition at 10 μM (RET(G691S)): −5.6%
% Inhibition at 10 μM (PKCγ): −8.0%
% Inhibition at 10 μM (COT_Cascade): 11.2%
% Inhibition at 10 μM (HIPK3): −7.6%
% Inhibition at 10 μM (AurC): 7.3%
% Inhibition at 10 μM (PDGFRβ): 0.3%
% Inhibition at 10 μM (ABL(T315I)): 0.7%
% Inhibition at 10 μM (FGFR1): −2.7%
% Inhibition at 10 μM (MAPKAPK5): −1.0%
% Inhibition at 10 μM (CaMK4): −7.1%
% Inhibition at 10 μM (CSK): 0.9%
% Inhibition at 10 μM (DYRK1B): −6.1%
% Inhibition at 10 μM (KIT): −0.3%
% Inhibition at 10 μM (MST2): −3.4%
% Inhibition at 10 μM (p38α): −8.5%
% Inhibition at 10 μM (DAPK1): −6.0%
% Inhibition at 10 μM (EPHA1): −2.3%
% Inhibition at 10 μM (MOS_Cascade): −1.0%
% Inhibition at 10 μM (HIPK4): 2.1%
% Inhibition at 10 μM (MLK1_Cascade): 6.3%
% Inhibition at 10 μM (MAP2K3_Cascade): 6.7%
% Inhibition at 10 μM (AKT1): −8.3%
% Inhibition at 10 μM (BMX): 2.7%
% Inhibition at 10 μM (SRM): −5.5%
% Inhibition at 10 μM (TRKB): 4.5%
% Inhibition at 10 μM (MSSK1): −1.6%
% Inhibition at 10 μM (PAK5): 9.3%
% Inhibition at 10 μM (SGK): −4.4%
% Inhibition at 10 μM (PDK1): −6.7%
% Inhibition at 10 μM (TYK2): −2.2%
% Inhibition at 10 μM (JNK1): −3.9%
% Inhibition at 10 μM (CaMK2γ): −4.7%
% Inhibition at 10 μM (MAP2K2_Cascade): 1.3%

CC(C)(C)Cc1[nH]nc2c1[C@](C)(c1ccccc1)C1=C(CC(C)(C)CC1=O)N2 [BRD3731]
% Inhibition 10 μM (PKCα; 10 μM): 8.1%
% Inhibition 10 μM (CaMK2β; 10 μM): 0.3%
% Inhibition 10 μM (NEK1; 10 μM): −0.1%
% Inhibition 10 μM (SYK; 10 μM): −11.0%
% Inhibition 10 μM (EPHA5; 10 μM): −5.5%
% Inhibition 10 μM (JAK2; 10 μM): 3.0%
% Inhibition 10 μM (WNK2; 10 μM): 1.6%
% Inhibition 10 μM (TAOK2; 10 μM): 2.2%
% Inhibition 10 μM (RET(G691S); 10 μM): −2.3%
% Inhibition 10 μM (PKCγ; 10 μM): 5.0%
% Inhibition 10 μM (COT_Cascade; 10 μM): 10.5%
% Inhibition 10 μM (HIPK3; 10 μM): 3.2%
% Inhibition 10 μM (AurC; 10 μM): 4.9%
% Inhibition 10 μM (PDGFRβ; 10 μM): 3.1%
% Inhibition 10 μM (ABL(T315I); 10 μM): −2.4%
% Inhibition 10 μM (FGFR1; 10 μM): 2.3%
% Inhibition 10 μM (MAPKAPK5; 10 μM): 6.1%
% Inhibition 10 μM (CaMK4; 10 μM): 12.4%
% Inhibition 10 μM (CSK; 10 μM): 1.9%
% Inhibition 10 μM (DYRK1B; 10 μM): 2.0%
% Inhibition 10 μM (KIT; 10 μM): −1.7%
% Inhibition 10 μM (MST2; 10 μM): 1.5%
% Inhibition 10 μM (p38α; 10 μM): 0.9%
% Inhibition 10 μM (DAPK1; 10 μM): −3.4%
% Inhibition 10 μM (EPHA1; 10 μM): 2.1%
% Inhibition 10 μM (MOS_Cascade; 10 μM): −9.5%
% Inhibition 10 μM (HIPK4; 10 μM): 15.9%
% Inhibition 10 μM (MLK1_Cascade; 10 μM): −9.4%
% Inhibition 10 μM (MAP2K3_Cascade; 10 μM): −8.8%
% Inhibition 10 μM (AKT1; 10 μM): −1.1%
% Inhibition 10 μM (BMX; 10 μM): −3.8%
% Inhibition 10 μM (SRM; 10 μM): 0.9%
% Inhibition 10 μM (TRKB; 10 μM): 11.0%
% Inhibition 10 μM (MSSK1; 10 μM): 2.8%
% Inhibition 10 μM (PAK5; 10 μM): 6.5%
% Inhibition 10 μM (SGK; 10 μM): −0.4%
% Inhibition 10 μM (PDK1; 10 μM): 2.0%
% Inhibition 10 μM (TYK2; 10 μM): 4.6%
% Inhibition 10 μM (JNK1; 10 μM): −6.0%
% Inhibition 10 μM (CaMK2γ; 10 μM): −1.2%
% Inhibition 10 μM (MAP2K2_Cascade; 10 μM): −0.4%
